Experimental data from patent US20240382446A1, “METHOD FOR IMPROVING FEED INTAKE” (OREXA B.V., priority 2021, published 2024).
Read-outs that look alike come from different tables or passages of the source.

What was measured:
[1] = cited from earlier work
[2] = Weaning of piglets with feed comprising various amounts of benzocaine; type: in vivo
Protocol: Six groups of 21 piglets were treated.
They were fed with controlled amounts of feed (see table V).
Before administration, the food pellets were drenched in water for 30 min and benzocaine (0 g (3×), 5 g, 12,75 g or 17 g, corresponding to a dose of 0, 30, 75 and 100 mg per day per pig, respectively) was added and mixed. The group of piglets receiving feed with 0% benzocaine is referred to as the placebo group.
Amounts of feed consumed were recorded. Piglets were weighed on day 1 (baseline), 4, and 8.

[3] = Weaning of mice with feed comprising various local anesthetics (body weight); type: in vivo
Protocol: Litters of mice are weaned on day 18 after birth. The siblings are divided over 2 groups (placebo and active) with group sizes of 7-10 siblings.
The pups are offered daily ad libitum food in which a local anesthetic is mixed. Body weight is measured daily.
In TABLES I-IV the body weight is depicted as percentage increase on day 14 in comparison to baseline, as a result of dosing lidocaine (comparative), prilocaine (comparative), bupivacaine (comparative) and benzocaine (according to the invention) to the mice. The baseline is the weight of the mouse at the beginning of the experiment. Placebo and experimental scores are statistically compared by means of student-t tests (* p<0,05; ** p<0,01; *** p<0,001). Doses are indicated on the x-axis and are mg per day for the group of siblings.

[4] = benzocaine treated pigs vs placebo group
[5] = mice weaned day 18, anesthetic mixed in ad libitum food, day 14 vs baseline

Q: What does the source list for `CCOC(=O)c1ccc(N)cc1` [benzocaine]?
A: solubility ([1]; dilute acids): more soluble; solubility ([1]; ethanol, chloroform, and ethyl ether): very soluble; solubility ([1]; water): sparingly soluble; fouling and diarrhea [2, 4]: less fouling and less diarrhea; general condition of the pigs [2, 4]: better than that of the placebo group; feed intake relative to placebo ([2]; piglets, after day 4, 30 mg and 75 mg benzocaine per day): increase feed intake; growth of lightest vs heaviest 50% of the animals ([2]; piglets, day 7, group analysis vs placebo): increase of growth in the benzocaine-fed group primarily takes place with the light weight animals; feed intake relative to placebo ([2]; piglets, first 3 days): initial reduction of the feed intake; optimal dose ([2]; piglets, per pig): 75 mg per day; feed conversion (feed needed per weight gain) ([2]; piglets, with increasing benzocaine dosing, placebo about 12,8 kg feed per 1 kg): 2,6 kg of feed per 1 kg of meat; growth of the mice (body weight increase) in comparison to placebo ([3]; 200 mg per day for the group of siblings, day 14): inhibits the growth; growth of the mice (body weight increase) in comparison to placebo ([3]; low doses 25, 50 and 100 mg per day for the group of siblings, day 14): increases the growth

Q: Which “growth of the mice (body weight increase) in comparison to placebo” value [3, 5] does the source give for `CCCCN1CCCCC1C(=O)Nc1c(C)cccc1C` (stereo not drawn) [bupivacaine] here?
A: The value was “either inactive (low dose) or inhibit the growth of the mice”.

Q: With `CCN(CC)CC(=O)Nc1c(C)cccc1C` [Lidocaine, lidocaine] as the compound, how does the “growth of the mice (body weight increase) in comparison to placebo” value [3, 5] read?
A: Its value is “either inactive (low dose) or inhibit the growth of the mice”.

Q: Which “growth of the mice (body weight increase) in comparison to placebo” value [3, 5] does the source give for `CCCNC(C)C(=O)Nc1ccccc1C` (stereo not drawn) [prilocaine] here?
A: Its value is “either inactive (low dose) or inhibit the growth of the mice”.
